Assay results as given in patent US6737383B1, “Herbicidal oxadiazolidines” (priority 1999, dated 2004).

Legend:
[1] = test system: giant foxtail; assay: Test B pre/postemergence giant foxtail; type: in vivo, Setaria faberii
In short: (§1)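 Test chemicals in a non-phytotoxic solvent mixture with surfactant were sprayed preemergence onto planted seeds and postemergence onto plants 2 to 18 cm tall (1- to 4-leaf stage). After twelve to sixteen days in a greenhouse, injury was visually rated against untreated controls from 0 (no effect) to 10 (complete control).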

[2] = test system: velvetleaf; assay: Test B pre/postemergence velvetleaf; type: in vivo, Abutilon theophrasti
In short: as §1

[3] = test system: rape; assay: Test B pre/postemergence rape; type: in vivo, Brassica napus
In short: as §1

[4] = test system: corn; assay: Test B pre/postemergence corn; type: in vivo, Zea mays
In short: as §1

[5] = test system: crabgrass; assay: Test B pre/postemergence crabgrass; type: in vivo, Digitaria sanguinalis
In short: as §1

[6] = test system: pigweed; assay: Test B pre/postemergence pigweed; type: in vivo, Amaranthus retroflexus
In short: as §1

[7] = test system: bedstraw; assay: Test B pre/postemergence bedstraw; type: in vivo, Galium aparine
In short: as §1

[8] = test system: wheat; assay: Test B pre/postemergence wheat; type: in vivo, Triticum aestivum
In short: as §1

[9] = test system: soybean; assay: Test B pre/postemergence soybean; type: in vivo, Glycine max
In short: as §1

[10] = test system: purple nutsedge; assay: Test B pre/postemergence purple nutsedge; type: in vivo, Cyperus rotundus
In short: as §1

[11] = test system: bamyardgrass; assay: Test B flood test barnyardgrass; type: in vivo, Echinochloa crus-galli
In short: (§2)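 Plants were grown to the 2-leaf stage before treatment with test chemical, then held in a greenhouse for twelve to sixteen days. Injury was visually rated against untreated controls on a 0–10 scale, where 0 is no effect and 10 is complete control.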

[12] = test system: sugar beet; assay: Test B pre/postemergence sugar beet; type: in vivo, Beta vulgaris
In short: as §1

[13] = test system: blackgrass; assay: Test B pre/postemergence blackgrass; type: in vivo, Alopecurus myosuroides
In short: as §1

[14] = test system: morningglory; assay: Test B pre/postemergence morningglory; type: in vivo, Ipomoea hederacea
In short: as §1

[15] = test system: rice; assay: Test B flood test rice; type: in vivo, Oryza sativa
In short: as §2

[16] = test system: smallflower flatsedge; assay: Test B flood test smallflower flatsedge; type: in vivo, Cyperus difformis
In short: as §2

[17] = test system: cocklebur; assay: Test B pre/postemergence cocklebur; type: in vivo, Xanthium strumarium
In short: as §1

[18] = test system: duck salad; assay: Test B flood test duck salad; type: in vivo, Heteranthera limosa
In short: as §2

[19] = test system: wild oat; assay: Test B pre/postemergence wild oat; type: in vivo, Avena fatua
In short: as §1

[20] = test system: surinam grass; assay: Test B pre/postemergence surinam grass; type: in vivo, Brachiaria decumbens
In short: as §1

[21] = Preemergence, Rate 62 g/ha, scale of 0 to 10 where 0 is no effect and 10 is complete control
[22] = Preemergence, Rate 250 g/ha, scale of 0 to 10 where 0 is no effect and 10 is complete control
[23] = Preemergence, Rate 500 g/ha, scale of 0 to 10 where 0 is no effect and 10 is complete control
[24] = Rate 125 g/ha, Preemergence, scale of 0 to 10 where 0 is no effect and 10 is complete control
[25] = Rate 500 g/ha, Postemergence, scale 0 to 10, 0 no effect, 10 complete control
[26] = Rate 62 g/ha, Postemergence, scale of 0 to 10 where 0 is no effect and 10 is complete control
[27] = Rate 125 g/ha, Postemergence, scale 0 to 10
[28] = Rate 62 g/ha, headed Pre-emergence (flood test species), scale 0 to 10 (0 no effect, 10 complete control)
[29] = Rate 125 g/ha, Pre-emergence, flood test species, scale 0 to 10 where 0 is no effect and 10 is complete control
[30] = Rate 250 g/ha, Pre-emergence, flood-test species, scale 0 to 10, 0 is no effect, 10 is complete control
[31] = Rate 500 g/ha, Pre-emergence, flood test species, scale 0 to 10 (0 no effect, 10 complete control)

C=CCn1c(=O)on(C(=O)N(c2ccc(F)cc2)C2CCCCCC2)c1=O [Compound 249]
2: Plant response rating, Crabgrass [5, 23] | Sugarbeets plant response rating [12, 25]
0: Giant foxtail plant response rating [1, 21] | Giant foxtail plant response rating [1, 24] | Plant response rating (0 to 10; 0 is no effect, 10 is complete control), Giant foxtail ([1]; Rate 250 g/ha, Postemergence) | Giant foxtail plant response rating [1, 25] | Velvetleaf plant response rating [2, 21] | Velvetleaf plant response rating [2, 22] | Plant response rating, Velvetleaf [2, 23] | Velvetleaf plant response rating [2, 24] | Velvetleaf plant response rating [2, 25] | Rape plant response rating [3, 21] | Rape plant response rating [3, 22] | Plant response rating, Rape [3, 23] | Rape plant response rating [3, 24] | Plant response rating (0 to 10; 0 is no effect, 10 is complete control), Rape ([3]; Rate 250 g/ha, Postemergence) | Rape plant response rating [3, 25] | Corn plant response rating [4, 21] | Corn plant response rating [4, 22] | Plant response rating, Corn [4, 23] | Corn plant response rating [4, 26] | Corn plant response rating [4, 27] | Corn plant response rating [4, 24] | Plant response rating (0 to 10; 0 is no effect, 10 is complete control), Corn ([4]; Rate 250 g/ha, Postemergence) | Corn plant response rating [4, 25] | Crabgrass plant response rating [5, 21] | Crabgrass plant response rating [5, 22] | Crabgrass plant response rating [5, 24] | Plant response rating (0 to 10; 0 is no effect, 10 is complete control), Crabgrass ([5]; Rate 250 g/ha, Postemergence) | Crabgrass plant response rating [5, 25] | Redroot pigweed plant response rating [6, 21] | Redroot pigweed plant response rating [6, 22] | Plant response rating, Redroot pigweed [6, 23] | Redroot pigweed plant response rating [6, 24] | Plant response rating (0 to 10; 0 is no effect, 10 is complete control), Redroot pigweed ([6]; Rate 250 g/ha, Postemergence) | Bedstraw plant response rating [7, 21] | Bedstraw plant response rating [7, 22] | Plant response rating, Bedstraw [7, 23] | Bedstraw plant response rating [7, 26] | Bedstraw plant response rating [7, 27] | Plant response rating (0 to 10; 0 is no effect, 10 is complete control), Bedstraw ([7]; Rate 250 g/ha, Postemergence) | Bedstraw plant response rating [7, 25] | Wheat plant response rating [8, 21] | Wheat plant response rating [8, 22] | Plant response rating, Wheat [8, 23] | Wheat plant response rating [8, 24] | Wheat plant response rating [8, 25] | Soybean plant response rating [9, 21] | Soybean plant response rating [9, 22] | Plant response rating, Soybean [9, 23] | Soybean plant response rating [9, 24] | Nutsedge plant response rating [10, 21] | Nutsedge plant response rating [10, 22] | Plant response rating, Nutsedge [10, 23] | Nutsedge plant response rating [10, 24] | Plant response rating (0 to 10; 0 is no effect, 10 is complete control), Nutsedge ([10]; Rate 250 g/ha, Postemergence) | Nutsedge plant response rating [10, 25] | Barnyardgrass plant response rating [11, 28] | Barnyardgrass plant response rating [11, 29] | Barnyardgrass plant response rating [11, 30] | Barnyardgrass plant response rating [11, 31] | Sugarbeets plant response rating [12, 21] | Sugarbeets plant response rating [12, 22] | Plant response rating, Sugarbeets [12, 23] | Sugarbeets plant response rating [12, 24] | Blackgrass plant response rating [13, 21] | Blackgrass plant response rating [13, 22] | Plant response rating, Blackgrass [13, 23] | Blackgrass plant response rating [13, 26] | Blackgrass plant response rating [13, 27] | Blackgrass plant response rating [13, 24] | Plant response rating (0 to 10; 0 is no effect, 10 is complete control), Blackgrass ([13]; Rate 250 g/ha, Postemergence) | Blackgrass plant response rating [13, 25] | Morningglory plant response rating [14, 21] | Morningglory plant response rating [14, 22] | Plant response rating, Morningglory [14, 23] | Morningglory plant response rating [14, 24] | Plant response rating (0 to 10; 0 is no effect, 10 is complete control), Morningglory ([14]; Rate 250 g/ha, Postemergence) | Rice plant response rating [15, 28] | Rice plant response rating [15, 29] | Rice plant response rating [15, 30] | Rice plant response rating [15, 31] | S. Flatsedge plant response rating [16, 28] | S. Flatsedge plant response rating [16, 29] | S. Flatsedge plant response rating [16, 30] | S. Flatsedge plant response rating [16, 31] | Cocklebur plant response rating [17, 21] | Cocklebur plant response rating [17, 22] | Plant response rating, Cocklebur [17, 23] | Cocklebur plant response rating [17, 26] | Cocklebur plant response rating [17, 27] | Cocklebur plant response rating [17, 24] | Plant response rating (0 to 10; 0 is no effect, 10 is complete control), Cocklebur ([17]; Rate 250 g/ha, Postemergence) | Cocklebur plant response rating [17, 25] | Ducksalad plant response rating [18, 28] | Ducksalad plant response rating [18, 29] | Ducksalad plant response rating [18, 30] | Ducksalad plant response rating [18, 31] | Wild oats plant response rating [19, 21] | Wild oats plant response rating [19, 22] | Plant response rating, Wild oats [19, 23] | Wild oats plant response rating [19, 24] | Wild oats plant response rating [19, 25] | B. signalgrass plant response rating [20, 21] | B. signalgrass plant response rating [20, 22] | Plant response rating, B. signalgrass [20, 23] | B. signalgrass plant response rating [20, 26] | B. signalgrass plant response rating ([20]; Rate 125 g/ha, Postemergence, scale 0 (no effect) to 10 (complete control)) | B. signalgrass plant response rating [20, 24] | Plant response rating (0 to 10; 0 is no effect, 10 is complete control), B. signalgrass ([20]; Rate 250 g/ha, Postemergence) | B. signalgrass plant response rating [20, 25]
4: Soybean plant response rating [9, 25]
5: Plant response rating, Giant foxtail [1, 23]
3: Giant foxtail plant response rating [1, 22] | Redroot pigweed plant response rating [6, 25] | Morningglory plant response rating [14, 25]
